Source: patent US6358885B1, “Substituted phenylheterocyclic herbicides” (Mississippi State University, priority 1992, dated 2002)

What was measured:
Assay in all cases: Test B preemergence/postemergence greenhouse plant response rating 0 to 10
barley = format: in vivo, Hordeum vulgare; conditions: for Plant response rating, Barley: 0 to 10 scale
Outline: (§1)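 Test chemicals were sprayed onto freshly planted seed and, concurrently, onto young plants between the one and four leaf stage. After a twelve- to sixteen-day greenhouse period, each species was visually compared with untreated controls.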

barnyardgrass = format: in vivo, Echinochloa crus-galli; conditions: for Plant response rating, Barnyardgrass: 0 to 10 scale
Outline: as §1

bedstraw = format: in vivo, Galium aparine; conditions: for Plant response rating, Bedstraw: 0 to 10 scale
Outline: as §1

blackgrass = format: in vivo, Alopecurus myosuroides; conditions: for Plant response rating, Blackgrass: 0 to 10 scale
Outline: as §1

cheatgrass = format: in vivo, Bromus secalinus; conditions: for Plant response rating, Cheatgrass: 0 to 10 scale
Outline: as §1

chickweed = format: in vivo, Stellaria media; conditions: for Plant response rating, Chickweed: 0 to 10 scale
Outline: as §1

cocklebur = format: in vivo, Xanthium pensylvanicum; conditions: for Plant response rating, Cocklebur: 0 to 10 scale
Outline: as §1

corn = format: in vivo, Zea mays; conditions: for Plant response rating, Corn: 0 to 10 scale
Outline: as §1

cotton = format: in vivo, Gossypium hirsutum; conditions: for Plant response rating, Cotton: 0 to 10 scale
Outline: as §1

crabgrass = format: in vivo, Digitaria spp.; conditions: for Plant response rating, Crabgrass: 0 to 10 scale
Outline: as §1

giant foxtail = format: in vivo, Setaria faberii; conditions: for Plant response rating, Giant foxtail: 0 to 10 scale
Outline: as §1

lambsquarters = format: in vivo, Chenopodium album; conditions: for Plant response rating, Lambsquarter: 0 to 10 scale
Outline: as §1

morningglory = format: in vivo, Ipomoea hederacea; conditions: for Plant response rating, Morningglory: 0 to 10 scale
Outline: as §1

rape = format: in vivo, Brassica napus; conditions: for Plant response rating, Rape: 0 to 10 scale
Outline: as §1

rice = format: in vivo, Oryza sativa; conditions: for Plant response rating, Rice: 0 to 10 scale
Outline: as §1

sorghum = format: in vivo, Sorghum bicolor; conditions: for Plant response rating, Sorghum: 0 to 10 scale
Outline: as §1

soybean = format: in vivo, Glycine max; conditions: for Plant response rating, Soybean: 0 to 10 scale
Outline: as §1

sugar beet = format: in vivo, Beta vulgaris; conditions: for Plant response rating, Sugar beet: 0 to 10 scale
Outline: as §1

velvetleaf = format: in vivo, Abutilon theophrasti; conditions: for Plant response rating, Velvetleaf: 0 to 10 scale
Outline: as §1

wheat = format: in vivo, Triticum aestivum; conditions: for Plant response rating, Wheat: 0 to 10 scale
Outline: as §1

wild buckwheat = format: in vivo, Polygonum convolvulus; conditions: for Plant response rating, Wild buckwheat: 0 to 10 scale
Outline: as §1

wild oat = format: in vivo, Avena fatua; conditions: for Plant response rating, Wild oat: 0 to 10 scale
Outline: as §1

purple nutsedge = format: in vivo, Cyperus rotundus; conditions: for Plant response rating, Nutsedge: 0 to 10 scale
Outline: as §1

O=C1COc2cc(F)c(-c3nn4c(c3Br)CCCC4)cc2N1 [Compound 80]
8: Plant response rating, Barnyardgrass (barnyardgrass; Rate 200 g/ha, POSTEMERGENCE) | Plant response rating, Bedstraw (bedstraw; POSTEMERGENCE, Rate 50 g/ha) | Plant response rating, Rice (rice; Rate 200 g/ha, POSTEMERGENCE) | Plant response rating, Soybean (soybean; POSTEMERGENCE, Rate 50 g/ha) | Plant response rating, Sugar beet (sugar beet; PREEMERGENCE, Rate 50 g/ha)
6: Plant response rating, Barnyardgrass (barnyardgrass; POSTEMERGENCE, Rate 50 g/ha) | Plant response rating (0 to 10 scale), Barnyardgrass (barnyardgrass; PREEMERGENCE, Rate 200 g/ha) | Plant response rating, Blackgrass (blackgrass; Rate 200 g/ha, POSTEMERGENCE) | Plant response rating, Cheatgrass (cheatgrass; Rate 200 g/ha, POSTEMERGENCE) | Plant response rating, Crabgrass (crabgrass; Rate 200 g/ha, POSTEMERGENCE) | Plant response rating, Rice (rice; POSTEMERGENCE, Rate 50 g/ha) | Plant response rating, Sorghum (sorghum; Rate 200 g/ha, POSTEMERGENCE)
2: Plant response rating (0 to 10 scale), Bedstraw (bedstraw; PREEMERGENCE, Rate 200 g/ha) | Plant response rating, Cheatgrass (cheatgrass; PREEMERGENCE, Rate 50 g/ha) | Plant response rating (0 to 10 scale), Giant foxtail (giant foxtail; PREEMERGENCE, Rate 200 g/ha) | Plant response rating, Rice (rice; PREEMERGENCE, Rate 50 g/ha) | Plant response rating (0 to 10 scale), Wheat (wheat; PREEMERGENCE, Rate 200 g/ha) | Plant response rating, Wild oat (wild oat; PREEMERGENCE, Rate 50 g/ha) | Plant response rating, Nutsedge (purple nutsedge; POSTEMERGENCE, Rate 50 g/ha)
7: Plant response rating, Chickweed (chickweed; Rate 200 g/ha, POSTEMERGENCE) | Plant response rating, Giant foxtail (giant foxtail; Rate 200 g/ha, POSTEMERGENCE) | Plant response rating (0 to 10 scale), Wild oat (wild oat; PREEMERGENCE, Rate 200 g/ha)
9: Plant response rating, Cocklebur (cocklebur; POSTEMERGENCE, Rate 50 g/ha) | Plant response rating, Soybean (soybean; Rate 200 g/ha, POSTEMERGENCE) | Plant response rating (0 to 10 scale), Sugar beet (sugar beet; PREEMERGENCE, Rate 200 g/ha) | Plant response rating, Velvetleaf (velvetleaf; POSTEMERGENCE, Rate 50 g/ha) | Plant response rating, Velvetleaf (velvetleaf; PREEMERGENCE, Rate 50 g/ha)
3: Plant response rating, Barley (barley; POSTEMERGENCE, Rate 50 g/ha) | Plant response rating, Blackgrass (blackgrass; POSTEMERGENCE, Rate 50 g/ha) | Plant response rating (0 to 10 scale), Blackgrass (blackgrass; PREEMERGENCE, Rate 200 g/ha) | Plant response rating (0 to 10 scale), Cheatgrass (cheatgrass; PREEMERGENCE, Rate 200 g/ha) | Plant response rating (0 to 10 scale), Chickweed (chickweed; PREEMERGENCE, Rate 200 g/ha) | Plant response rating (0 to 10 scale), Crabgrass (crabgrass; PREEMERGENCE, Rate 200 g/ha) | Plant response rating, Wild buckwheat (wild buckwheat; PREEMERGENCE, Rate 50 g/ha) | Plant response rating (0 to 10 scale), Wild buckwheat (wild buckwheat; PREEMERGENCE, Rate 200 g/ha)
5: Plant response rating, Cheatgrass (cheatgrass; POSTEMERGENCE, Rate 50 g/ha) | Plant response rating, Corn (corn; Rate 200 g/ha, POSTEMERGENCE) | Plant response rating, Morningglory (morningglory; PREEMERGENCE, Rate 50 g/ha) | Plant response rating, Wild oat (wild oat; Rate 200 g/ha, POSTEMERGENCE)
4: Plant response rating, Barley (barley; Rate 200 g/ha, POSTEMERGENCE) | Plant response rating, Chickweed (chickweed; POSTEMERGENCE, Rate 50 g/ha) | Plant response rating, Corn (corn; POSTEMERGENCE, Rate 50 g/ha) | Plant response rating, Crabgrass (crabgrass; POSTEMERGENCE, Rate 50 g/ha) | Plant response rating, Giant foxtail (giant foxtail; POSTEMERGENCE, Rate 50 g/ha) | Plant response rating, Rape (rape; PREEMERGENCE, Rate 50 g/ha) | Plant response rating (0 to 10 scale), Rice (rice; PREEMERGENCE, Rate 200 g/ha) | Plant response rating, Sorghum (sorghum; POSTEMERGENCE, Rate 50 g/ha) | Plant response rating, Wheat (wheat; POSTEMERGENCE, Rate 50 g/ha) | Plant response rating, Wheat (wheat; Rate 200 g/ha, POSTEMERGENCE) | Plant response rating, Wild oat (wild oat; POSTEMERGENCE, Rate 50 g/ha) | Plant response rating, Nutsedge (purple nutsedge; Rate 200 g/ha, POSTEMERGENCE)
10: Plant response rating, Bedstraw (bedstraw; Rate 200 g/ha, POSTEMERGENCE) | Plant response rating, Cocklebur (cocklebur; Rate 200 g/ha, POSTEMERGENCE) | Plant response rating, Cotton (cotton; POSTEMERGENCE, Rate 50 g/ha) | Plant response rating, Cotton (cotton; Rate 200 g/ha, POSTEMERGENCE) | Plant response rating, Lambsquarter (lambsquarters; POSTEMERGENCE, Rate 50 g/ha) | Plant response rating, Lambsquarter (lambsquarters; PREEMERGENCE, Rate 50 g/ha) | Plant response rating (0 to 10 scale), Lambsquarter (lambsquarters; PREEMERGENCE, Rate 200 g/ha) | Plant response rating, Lambsquarter (lambsquarters; Rate 200 g/ha, POSTEMERGENCE) | Plant response rating, Morningglory (morningglory; POSTEMERGENCE, Rate 50 g/ha) | Plant response rating (0 to 10 scale), Morningglory (morningglory; PREEMERGENCE, Rate 200 g/ha) | Plant response rating, Morningglory (morningglory; Rate 200 g/ha, POSTEMERGENCE) | Plant response rating, Rape (rape; POSTEMERGENCE, Rate 50 g/ha) | Plant response rating (0 to 10 scale), Rape (rape; PREEMERGENCE, Rate 200 g/ha) | Plant response rating, Rape (rape; Rate 200 g/ha, POSTEMERGENCE) | Plant response rating, Sugar beet (sugar beet; POSTEMERGENCE, Rate 50 g/ha) | Plant response rating, Sugar beet (sugar beet; Rate 200 g/ha, POSTEMERGENCE) | Plant response rating (0 to 10 scale), Velvetleaf (velvetleaf; PREEMERGENCE, Rate 200 g/ha) | Plant response rating, Velvetleaf (velvetleaf; Rate 200 g/ha, POSTEMERGENCE) | Plant response rating, Wild buckwheat (wild buckwheat; POSTEMERGENCE, Rate 50 g/ha) | Plant response rating, Wild buckwheat (wild buckwheat; Rate 200 g/ha, POSTEMERGENCE)
0: Plant response rating, Barley (barley; PREEMERGENCE, Rate 50 g/ha) | Plant response rating (0 to 10 scale), Barley (barley; PREEMERGENCE, Rate 200 g/ha) | Plant response rating, Barnyardgrass (barnyardgrass; PREEMERGENCE, Rate 50 g/ha) | Plant response rating, Bedstraw (bedstraw; PREEMERGENCE, Rate 50 g/ha) | Plant response rating, Blackgrass (blackgrass; PREEMERGENCE, Rate 50 g/ha) | Plant response rating, Chickweed (chickweed; PREEMERGENCE, Rate 50 g/ha) | Plant response rating, Cocklebur (cocklebur; PREEMERGENCE, Rate 50 g/ha) | Plant response rating (0 to 10 scale), Cocklebur (cocklebur; PREEMERGENCE, Rate 200 g/ha) | Plant response rating, Corn (corn; PREEMERGENCE, Rate 50 g/ha) | Plant response rating (0 to 10 scale), Corn (corn; PREEMERGENCE, Rate 200 g/ha) | Plant response rating, Cotton (cotton; PREEMERGENCE, Rate 50 g/ha) | Plant response rating (0 to 10 scale), Cotton (cotton; PREEMERGENCE, Rate 200 g/ha) | Plant response rating, Crabgrass (crabgrass; PREEMERGENCE, Rate 50 g/ha) | Plant response rating, Giant foxtail (giant foxtail; PREEMERGENCE, Rate 50 g/ha) | Plant response rating, Sorghum (sorghum; PREEMERGENCE, Rate 50 g/ha) | Plant response rating (0 to 10 scale), Sorghum (sorghum; PREEMERGENCE, Rate 200 g/ha) | Plant response rating, Soybean (soybean; PREEMERGENCE, Rate 50 g/ha) | Plant response rating (0 to 10 scale), Soybean (soybean; PREEMERGENCE, Rate 200 g/ha) | Plant response rating, Wheat (wheat; PREEMERGENCE, Rate 50 g/ha) | Plant response rating, Nutsedge (purple nutsedge; PREEMERGENCE, Rate 50 g/ha) | Plant response rating (0 to 10 scale), Nutsedge (purple nutsedge; PREEMERGENCE, Rate 200 g/ha)
